In ChEMBL document CHEMBL1138757, “Synthesis and photosensitizing efficacy of isomerically pure bacteriopurpurinimides” (2004):

Columns and labels:
Mus musculus [1] = organism: Mus musculus; assay: In vitro Efficacy to destroy the RIF tumor cells by MTT assay when incubated for 3 hr at drug concentration of 1.5 uM and exposed to laser light (780nm,16J/cm2); assay type: functional
Mus musculus [2] = assay: In vivo photosensitizing efficacy when evaluated in mice assessed on day 90; assay type: functional

CCCCCCCO[C@H](C)C1=C(C)c2cc3[nH]c(c4c5[nH]c(cc6nc(cc1n2)[C@H](C)[C@H]6CC)c(C)c5C(=O)N(CCCCCC)C4=O)[C@@H](CCC(=O)OCCC)[C@@H]3C
Efficacy (Mus musculus [1]): 100%
Efficacy (Mus musculus [2]): 6 No. of mice tumor free

CCCCCCCO[C@@H](C)C1=C(C)c2cc3[nH]c(c4c5[nH]c(cc6nc(cc1n2)[C@H](C)[C@H]6CC)c(C)c5C(=O)N(CCCCCC)C4=O)[C@@H](CCC(=O)OCCC)[C@@H]3C
Efficacy (Mus musculus [1]): 100%
Efficacy (Mus musculus [2]): 2 No. of mice tumor free
